# Assay results: ChEMBL document CHEMBL2331162, “Biophysical fragment screening of the β1-adrenergic receptor: identification of high affinity arylpiperazine leads using structure-based drug design” (J Med Chem, 2013)
# Calls of active or inactive are those of the source. No cut-off for these calls is given here.
# Tests used:
# [1] = biological target: T1, Muscarinic acetylcholine receptor M4 (Homo sapiens) (UniProt P08173); test: Agonist activity at human muscarinic M4 receptor expressed in CHO cells assessed as stimulation of ERK1/2 phosphorylation after 15 mins by Alphascreen Surefire assay; assay type: cell-based
# T1 sequence (whole entry): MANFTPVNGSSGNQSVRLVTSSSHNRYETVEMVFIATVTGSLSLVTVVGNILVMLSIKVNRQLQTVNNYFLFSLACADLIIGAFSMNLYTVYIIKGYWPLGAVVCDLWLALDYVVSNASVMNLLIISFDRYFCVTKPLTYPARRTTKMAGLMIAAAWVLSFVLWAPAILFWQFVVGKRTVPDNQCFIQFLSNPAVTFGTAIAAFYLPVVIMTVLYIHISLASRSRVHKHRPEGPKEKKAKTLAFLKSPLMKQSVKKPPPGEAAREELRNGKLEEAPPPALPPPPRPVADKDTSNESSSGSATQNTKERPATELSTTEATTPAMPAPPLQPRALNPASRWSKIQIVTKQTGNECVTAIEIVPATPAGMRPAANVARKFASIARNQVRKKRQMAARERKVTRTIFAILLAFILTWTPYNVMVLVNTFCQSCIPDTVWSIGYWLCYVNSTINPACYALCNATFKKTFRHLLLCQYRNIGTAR
# [2] = biological target: T2, Muscarinic acetylcholine receptor M3 (Homo sapiens, UniProt P20309); test: Agonist activity at human muscarinic M3 receptor expressed in CHO cells assessed as stimulation of ERK1/2 phosphorylation after 15 mins by Alphascreen Surefire assay; assay type: cell-based
# Target sequence in this assay (P20309 whole entry, looked up): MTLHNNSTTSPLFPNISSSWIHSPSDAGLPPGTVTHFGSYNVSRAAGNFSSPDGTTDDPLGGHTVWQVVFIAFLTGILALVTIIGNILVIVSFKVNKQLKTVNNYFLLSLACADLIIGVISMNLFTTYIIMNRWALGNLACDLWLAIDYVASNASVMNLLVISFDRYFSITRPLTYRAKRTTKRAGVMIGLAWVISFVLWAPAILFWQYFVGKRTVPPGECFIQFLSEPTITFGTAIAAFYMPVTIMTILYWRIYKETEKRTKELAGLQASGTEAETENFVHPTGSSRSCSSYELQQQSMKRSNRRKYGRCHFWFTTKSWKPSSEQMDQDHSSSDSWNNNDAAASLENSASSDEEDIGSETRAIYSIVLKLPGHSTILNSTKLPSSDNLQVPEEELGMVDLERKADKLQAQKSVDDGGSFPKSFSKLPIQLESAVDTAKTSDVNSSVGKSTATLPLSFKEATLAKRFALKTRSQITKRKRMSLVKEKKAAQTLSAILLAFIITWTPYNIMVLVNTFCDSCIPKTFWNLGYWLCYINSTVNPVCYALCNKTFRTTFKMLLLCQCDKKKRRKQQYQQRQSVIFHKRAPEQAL
# [3] = biological target: T3, Muscarinic acetylcholine receptor M2 (Homo sapiens) (UniProt P08172); test: Agonist activity at human muscarinic M2 receptor expressed in CHO cells assessed as stimulation of ERK1/2 phosphorylation after 15 mins by Alphascreen Surefire assay; assay type: cell-based
# T3 sequence (whole entry): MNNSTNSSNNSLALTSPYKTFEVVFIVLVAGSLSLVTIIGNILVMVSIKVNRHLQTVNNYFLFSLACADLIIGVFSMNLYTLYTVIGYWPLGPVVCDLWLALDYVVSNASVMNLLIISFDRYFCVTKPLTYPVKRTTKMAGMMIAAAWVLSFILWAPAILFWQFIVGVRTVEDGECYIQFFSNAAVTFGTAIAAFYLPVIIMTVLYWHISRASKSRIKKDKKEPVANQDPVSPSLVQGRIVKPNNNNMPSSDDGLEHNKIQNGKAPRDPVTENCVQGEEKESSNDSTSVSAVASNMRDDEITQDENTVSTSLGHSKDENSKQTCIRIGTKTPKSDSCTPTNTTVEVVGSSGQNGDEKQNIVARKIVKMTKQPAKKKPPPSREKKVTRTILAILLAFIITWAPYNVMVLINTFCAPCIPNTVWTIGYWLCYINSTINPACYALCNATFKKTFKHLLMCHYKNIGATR
# [4] = biological target: T4, Muscarinic acetylcholine receptor M1 (Homo sapiens) (UniProt P11229); test: Agonist activity at human muscarinic M1 receptor expressed in CHO cells assessed as stimulation of ERK1/2 phosphorylation after 15 mins by Alphascreen Surefire assay; assay type: cell-based
# T4 sequence (whole entry): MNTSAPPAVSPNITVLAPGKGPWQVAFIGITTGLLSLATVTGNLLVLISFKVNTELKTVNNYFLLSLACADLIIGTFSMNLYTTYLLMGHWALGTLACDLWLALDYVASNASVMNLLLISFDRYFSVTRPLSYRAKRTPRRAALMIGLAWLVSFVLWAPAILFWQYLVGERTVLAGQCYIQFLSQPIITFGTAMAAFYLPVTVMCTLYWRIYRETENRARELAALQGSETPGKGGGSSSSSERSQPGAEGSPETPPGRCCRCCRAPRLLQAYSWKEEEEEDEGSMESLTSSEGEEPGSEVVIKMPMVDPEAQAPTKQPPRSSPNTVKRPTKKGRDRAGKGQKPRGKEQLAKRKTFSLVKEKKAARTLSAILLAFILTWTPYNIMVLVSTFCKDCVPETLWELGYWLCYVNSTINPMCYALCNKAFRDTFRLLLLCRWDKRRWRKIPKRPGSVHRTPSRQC
# [5] = biological target: T5, Muscarinic acetylcholine receptor M2 (Homo sapiens, UniProt P08172); test: Displacement of [3H]-NMS from recombinant muscarinic M2 receptor (unknown origin) expressed in CHOK1 cells after 60 mins by liquid scintillation counting analysis; assay type: cell-based, CHO-K1
# T5 sequence (P08172 whole entry): T3 sequence (whole entry)
# [6] = biological target: Beta-1 adrenergic receptor (Homo sapiens, UniProt P08588); test: Displacement of [3H]dihydroalprenolol from human wild type beta1 adrenergic receptor expressed in HEK293 cell membranes after 90 mins by liquid scintillation counting analysis
# [7] = biological target: T6, Muscarinic acetylcholine receptor M4 (Homo sapiens, UniProt P08173); test: Displacement of [3H]-NMS from recombinant muscarinic M4 receptor (unknown origin) expressed in CHOK1 cells after 60 mins by liquid scintillation counting analysis; assay type: cell-based, CHO-K1
# T6 sequence (P08173 whole entry): T1 sequence (whole entry)
# [8] = biological target: T2, Muscarinic acetylcholine receptor M3; test: Displacement of [3H]-NMS from recombinant muscarinic M3 receptor (unknown origin) expressed in CHOK1 cells after 60 mins by liquid scintillation counting analysis; assay type: cell-based, CHO-K1
# Target sequence in this assay (P20309 whole entry): as the sequence (P20309 whole entry, looked up) above
# Chain of Beta-1 adrenergic receptor (P08588 whole entry): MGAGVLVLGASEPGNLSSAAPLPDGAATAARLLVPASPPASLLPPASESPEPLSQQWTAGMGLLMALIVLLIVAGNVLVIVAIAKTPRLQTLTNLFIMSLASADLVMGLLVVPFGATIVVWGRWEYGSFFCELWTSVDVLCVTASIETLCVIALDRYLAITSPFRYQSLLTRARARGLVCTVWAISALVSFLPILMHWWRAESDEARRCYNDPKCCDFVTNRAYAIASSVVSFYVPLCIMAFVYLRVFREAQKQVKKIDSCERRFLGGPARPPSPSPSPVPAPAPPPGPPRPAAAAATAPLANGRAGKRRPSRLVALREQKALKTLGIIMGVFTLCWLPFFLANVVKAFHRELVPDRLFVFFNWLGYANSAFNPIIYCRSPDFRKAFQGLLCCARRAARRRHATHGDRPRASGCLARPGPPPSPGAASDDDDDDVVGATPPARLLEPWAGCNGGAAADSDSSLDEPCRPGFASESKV
structure (smiles),measurement,setting,value
c1cc(N2CCNCC2)c2cc[nH]c2c1,Activity,[1],inactive
same,Activity,[2],inactive
same,Activity,[3],inactive
same,Activity,[4],inactive
same,Ki,[5],> 20000 nM
same,Ki,[6],67.6 nM
FC(F)(F)c1ccnc(N2CCNCC2)c1,Ki,[6],2340 nM
c1csc(-c2cccc3ccc(N4CCNCC4)nc23)c1,Ki,[6],251 nM
Cc1cccc(N2CCNCC2)c1C,Ki,[6],537 nM
Cc1cc(N2CCNCC2)c2ccccc2n1,Ki,[6],1580 nM
FC(F)(F)c1ccnc(N2CCNCC2)n1,Ki,[6],2510 nM
Clc1cc(Cl)cc(N2CCNCC2)c1,Activity,[1],inactive
same,Activity,[2],inactive
same,Activity,[3],inactive
same,Activity,[4],inactive
same,Ki,[7],31600 nM
same,Ki,[8],7940 nM
same,Ki,[6],85.1 nM
Clc1cccc(N2CCNCC2)c1Cl,Activity,[1],inactive
same,Activity,[2],inactive
same,Activity,[3],inactive
same,Activity,[4],inactive
same,Ki,[5],> 20000 nM
same,Ki,[6],107 nM
Cc1nc(N2CCNCC2)c2c3c(sc2n1)CC(C)CC3 (stereo unspecified),Ki,[6],676 nM
Cc1cc(N2CCNCC2)nc2ccccc12,Activity,[1],inactive
same,Activity,[2],inactive
same,Activity,[3],inactive
same,Activity,[4],inactive
same,Ki,[5],> 20000 nM
same,Ki,[6],224 nM
COc1cc(OC)cc(N2CCNCC2)c1,Ki,[6],1580 nM
Clc1ccc(N2CCNCC2)cc1Cl,Ki,[6],214 nM
FC(F)(F)c1cc(N2CCNCC2)cc(C(F)(F)F)c1,Ki,[6],1260 nM
CSc1nc(N2CCNCC2)c2sc3c(c2n1)CCCC3,Ki,[6],200 nM
Cc1ccc(N2CCNCC2)cc1C,Ki,[6],741 nM
